Source: ChEMBL document CHEMBL4130353, “2-Substituted 3,7,8-trimethylnaphtho[1,2-b]furan-4,5-diones as specific L-shaped NQO1-mediated redox modulators for the treatment of non-small cell lung cancer” (Eur J Med Chem, 2017)
Values after ≈ are worked out from the molar mass of the structure shown. Active and inactive are the calls of the source. No cut-off for these calls is given here.

Key:
Homo sapiens = species on record: Homo sapiens; assay: Selectivity ratio for substrate activity at recombinant human NQO1 to substrate activity at human CPR
[1] = Lipophilicity, log D of the compound at pH 7.4; type: physicochemical; details: buffer
[2] = Intrinsic solubility of the compound; type: physicochemical; details: read-out: Intrinsic_solubility
[3] = Solubility of the compound in diluted HCl buffer at pH 3; type: physicochemical
A549 [4] = assay: Cytotoxicity against human A549 cells assessed as cell growth inhibition preincubated for 24 hrs followed by compound washout measured after 72 hrs by MTT assay; type: functional, cell-based
A549 [5] = assay: Cytotoxicity against human A549 cells assessed as cell growth inhibition preincubated for 24 hrs followed by compound washout measured after 72 hrs in presence of NQO1 inhibitor DIC by MTT assay; type: functional, cell-based
L02 [6] = assay: Cytotoxicity against human L02 cells assessed as cell growth inhibition preincubated for 24 hrs followed by compound washout measured after 72 hrs by MTT assay; type: cell-based
[7] = molecular target: NAD(P)H dehydrogenase [quinone] 1 (Homo sapiens) (UniProt P15559); assay: Substrate activity at NQO1 in human A549 cells assessed as induction of enzyme-catalyzed ROS production at 10 uM after 1 to 3 hrs by DCFH-DA-based flow cytometry; type: cell-based
NAD(P)H dehydrogenase [quinone] 1 (Homo sapiens), sequence (P15559 whole entry): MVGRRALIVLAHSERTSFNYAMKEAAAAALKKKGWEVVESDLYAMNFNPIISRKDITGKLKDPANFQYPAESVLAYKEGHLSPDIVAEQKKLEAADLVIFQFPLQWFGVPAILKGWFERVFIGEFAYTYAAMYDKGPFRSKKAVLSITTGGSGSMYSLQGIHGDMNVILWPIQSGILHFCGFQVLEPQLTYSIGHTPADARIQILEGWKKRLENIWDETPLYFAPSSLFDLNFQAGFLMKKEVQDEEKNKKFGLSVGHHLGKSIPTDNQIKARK

[8] = molecular target: NAD(P)H dehydrogenase [quinone] 1 (Homo sapiens) (UniProt P15559); assay: Substrate activity at NQO1 in human A549 cells assessed as induction of enzyme-catalyzed ROS production at 10 uM after 1 to 3 hrs in presence of NAC by DCFH-DA-based flow cytometry; type: cell-based
L02 [9] = assay: Induction of intracellular ROS levels in human L02 cells at 10 uM after 1 to 3 hrs by DCFH-DA-based flow cytometry; type: cell-based; details: l02, 10 µM
[10] = molecular target: NAD(P)H dehydrogenase [quinone] 1 (Homo sapiens) (UniProt P15559); assay: Substrate activity at NQO1 in human A549 cells assessed as induction of enzyme-catalyzed lipid peroxidation by measuring MDA equivalents per protein at 5 uM after 24 hrs by TBARS assay (reference value: 3.53 +/- 1.12 nmol/mg); type: cell-based
[11] = molecular target: NAD(P)H dehydrogenase [quinone] 1 (Homo sapiens) (UniProt P15559); assay: Substrate activity at NQO1 in human A549 cells assessed as induction of enzyme-catalyzed lipid peroxidation by measuring MDA equivalents per protein at 10 uM after 24 hrs by TBARS assay; type: cell-based
A549 [12] = assay: Effect on total AKT protein levels in human A549 cells at 5 uM after 3 hrs by Western blot analysis relative to control; type: ADME, cell-based; details: a549, 3 h
A549 [13] = assay: Effect on total AKT protein levels in human A549 cells at 10 uM after 3 hrs by Western blot analysis relative to control; type: ADME, cell-based; details: a549, 3 h
[14] = molecular target: NAD(P)H dehydrogenase [quinone] 1 (Homo sapiens) (UniProt P15559); assay: Substrate activity at NQO1 in human A549 cells assessed as induction of ROS-induced Akt phosphorylation at S473 at 1 uM after 3 hrs by Western blot analysis relative to control; type: cell-based
[15] = molecular target: NAD(P)H dehydrogenase [quinone] 1 (Homo sapiens) (UniProt P15559); assay: Substrate activity at NQO1 in human A549 cells assessed as induction of ROS-induced Akt phosphorylation at S473 at 5 uM after 3 hrs by Western blot analysis relative to control; type: cell-based
[16] = molecular target: NAD(P)H dehydrogenase [quinone] 1 (Homo sapiens) (UniProt P15559); assay: Substrate activity at NQO1 in human A549 cells assessed as induction of ROS-induced Akt phosphorylation at S473 at 10 uM after 3 hrs in presence of NAC by Western blot analysis relative to control; type: cell-based
[17] = molecular target: NAD(P)H dehydrogenase [quinone] 1 (Homo sapiens) (UniProt P15559); assay: Substrate activity at NQO1 in human A549 cells assessed as induction of ROS-induced Akt phosphorylation at […] at 10 uM after 3 hrs by Western blot analysis relative to control; type: cell-based
[18] = molecular target: NAD(P)H dehydrogenase [quinone] 1 (Homo sapiens) (UniProt P15559); assay: Substrate activity at NQO1 in human A549 cells assessed as induction of ROS-induced JNK phosphorylation at 10 uM after 3 hrs by Western blot analysis relative to control; type: cell-based
[19] = molecular target: NAD(P)H dehydrogenase [quinone] 1 (Homo sapiens) (UniProt P15559); assay: Substrate activity at NQO1 in human A549 cells assessed as induction of ROS-induced JNK phosphorylation at 10 uM after 3 hrs in presence of DIC by Western blot analysis relative to control; type: cell-based
A549 [20] = assay: Effect on total p38 protein levels in human A549 cells at 10 uM after 3 hrs by Western blot analysis relative to control; type: ADME, cell-based; details: a549, 3 h
A549 [21] = assay: Effect on total p38 protein levels in human A549 cells at 10 uM after 3 hrs in presence of NAC by Western blot analysis relative to control; type: ADME, cell-based; details: a549, 3 h
[22] = molecular target: NAD(P)H dehydrogenase [quinone] 1 (Homo sapiens) (UniProt P15559); assay: Substrate activity at NQO1 in human A549 cells assessed as induction of ROS-induced p38 phosphorylation at T180/Y182 at 10 uM after 3 hrs by Western blot analysis relative to control; type: cell-based
[23] = molecular target: NAD(P)H dehydrogenase [quinone] 1 (Homo sapiens) (UniProt P15559); assay: Substrate activity at NQO1 in human A549 cells assessed as induction of ROS-induced p38 phosphorylation at T180/Y182 at 10 uM after 3 hrs in presence of NAC by Western blot analysis relative to control; type: cell-based
[24] = molecular target: NAD(P)H dehydrogenase [quinone] 1 (Homo sapiens) (UniProt P15559); assay: Substrate activity at NQO1 in human A549 cells assessed as induction of ROS-induced p38 phosphorylation at T180/Y182 at 10 uM after 3 hrs in presence of DIC by Western blot analysis relative to control; type: cell-based
[25] = molecular target: NAD(P)H dehydrogenase [quinone] 1 (Homo sapiens) (UniProt P15559); assay: Substrate activity at NQO1 in human A549 cells assessed as induction of ROS-induced ERK phosphorylation at 1 uM after 3 hrs by Western blot analysis relative to control; type: cell-based
[26] = molecular target: NAD(P)H dehydrogenase [quinone] 1 (Homo sapiens) (UniProt P15559); assay: Substrate activity at NQO1 in human A549 cells assessed as induction of ROS-induced ERK phosphorylation at 10 uM after 3 hrs in presence of NAC by Western blot analysis relative to control; type: cell-based
[27] = molecular target: NAD(P)H dehydrogenase [quinone] 1 (Homo sapiens) (UniProt P15559); assay: Substrate activity at NQO1 in human A549 cells assessed as induction of ROS-induced ERK phosphorylation after 3 hrs by Western blot analysis; type: cell-based
A549 [28] = assay: Induction of apoptosis in human A549 cells assessed as chromatin condensation after 24 hrs by DAPI-staining based microscopy; type: functional, cell-based
A549 [29] = assay: Antitumor activity against human A549 cells xenografted in athymic nude mouse assessed as tumor growth inhibition at 15 mg/kg, iv administered every other day for 3 weeks measured every day during compound dosing relative to control; type: functional; details: 504 h, read-out: TGI
A549 [30] = assay: Antitumor activity against human A549 cells xenografted in athymic nude mouse assessed as tumor growth inhibition at 50 mg/kg, iv administered every other day for 3 weeks measured every day during compound dosing relative to control; type: functional; details: 504 h, read-out: TGI
Mus musculus = assay: Toxicity in athymic nude mouse xenografted with human A549 cells assessed as reduction in body weight at 50 mg/kg, iv administered every other day for 3 weeks relative to control; type: organism-based; parameters: scale not given: the % may be the effect or the level left; details: in vivo, 504 h
Danio rerio = species on record: Danio rerio; assay: Hepatotoxicity in 48 hrs post fertilized transgenic liver zebrafish larvae model expressing LFABP:EGFP protein at 10 uM measured after 48 hrs post dose by fluorescence based assay; type: organism-based; details: in vivo
A549 [31] = assay: Induction of ROS levels in human A549 cells xenografted in athymic nude mouse at 15 to 30 mg/kg, iv administered every other day for 3 weeks by DCFH-DA-probe based flow cytometry; type: functional, organism-based
A549 [32] = assay: Reduction of intracellular NADPH levels in human A549 cells xenografted in athymic nude mouse at 15 to 30 mg/kg, iv administered every other day for 3 weeks by fluorescent NADP+/NADPH detection based assay; type: functional, organism-based
A549 [33] = assay: Reduction of intracellular GSH levels in human A549 cells xenografted in athymic nude mouse at 15 to 30 mg/kg, iv administered every other day for 3 weeks by fluorescence-based assay; type: functional, organism-based

Selectivity ratio (Homo sapiens): 20.8
logD [1]: 3.1
solubility [2]: 360 µg/mL (≈ 810 µM)
solubility [3]: > 1000 µg/mL
Activity [7]: Active
Activity [8]: inactive
Activity [10]: 10.3 nmol/mg
Activity [11]: 18.6 nmol/mg
fold change (FC) (A549 [12]): 1.14
fold change (FC) (A549 [13]): 1.3
fold change (FC) [14]: 1.51
fold change (FC) [15]: 2.01
fold change (FC) [16]: 0.32
fold change (FC) [17]: 4.18
fold change (FC) [18]: 30.5
fold change (FC) [19]: 7.1
fold change (FC) (A549 [20]): 1.1
fold change (FC) (A549 [21]): 0.99
fold change (FC) [22]: 16.4
fold change (FC) [23]: 11.2
fold change (FC) [24]: 9.2
fold change (FC) [25]: 2
fold change (FC) [26]: 2.21
Activity [27]: Dose-dependent effect
Structure (SMILES): Cc1cc2c(cc1C)-c1oc(CNc3ccc(CN4CCOCC4)cc3)c(C)c1C(=O)C2=O
IC50 (A549 [4]): 2.1 µM
IC50 (A549 [5]): > 50 µM
IC50 (L02 [6]): 35 µM
Activity (L02 [9]): Non-Toxic
Activity (A549 [28]): Dose-dependent effect
inhibition in vivo at 15 mg/kg (A549 [29]): 65.8%
inhibition in vivo at 50 mg/kg (A549 [30]): 90.3%
Activity (Mus musculus): 18%
Activity (Danio rerio): Non-Toxic
Activity (A549 [31]): Active
Activity (A549 [32]): Active
Activity (A549 [33]): Active
